Experimental data from ChEMBL document CHEMBL4715688, “Discovery, Optimization, and in Vivo Evaluation of Benzimidazole Derivatives AM-8508 and AM-9635 as Potent and Selective PI3Kδ Inhibitors” (J Med Chem, 2016).
Converted amounts (≈) assume the structure as drawn.

Legend:
[1] = Metabolic stability in human liver microsomes assessed as metabolic turnover at 1 uM measured after 30 mins in presence of NADPH by LC/MS analysis; format: ADME, Microsome; conditions: read-out: Drug metabolism
[2] = Metabolic stability in rat liver microsomes assessed as metabolic turnover at 1 uM measured after 30 mins in presence of NADPH by LC/MS analysis; format: ADME, Microsome; conditions: read-out: Drug metabolism
[3] = Aqueous solubility of the compound in PBS buffer at pH 7.4 incubated for 72 hrs by HPLC analysis; format: physicochemical
[4] = Clearance in male Sprague-Dawley rat at 0.5 mg/kg, iv; format: ADME, organism-based; conditions: in vivo
[5] = Unbound clearance in male Sprague-Dawley rat at 0.5 mg/kg, iv; format: ADME, organism-based; conditions: in vivo
[6] = Oral bioavailability in male Sprague-Dawley rat at 2 mg/kg; format: ADME, organism-based; conditions: in vivo
[7] = Clearance in male Sprague-Dawley rat at 0.72 mg/kg, iv; format: ADME, organism-based; conditions: in vivo
[8] = Clearance in male Sprague-Dawley rat at […], iv; format: ADME, organism-based; conditions: in vivo, dose 0.71 mg/kg
[9] = Clearance in male Sprague-Dawley rat at 0.8 mg/kg, iv; format: ADME, organism-based; conditions: in vivo

In the case of `C[C@H](Nc1ncnc(N)c1C#N)c1nc2ccc(F)cc2n1-c1ccccc1`, the metabolised at 0.5 h, 1 µM [1] is reported as < 10%, the metabolised at 0.5 h, 1 µM [2] is reported as 26% and the solubility at 72 h [3] is reported as 374 µM (≈ 140 µg/mL). It also gave a clearance [4] of 40.2 mL/min/kg and a CL free [5] of 26.8 L/h/kg.

With `C[C@H](Nc1ncnc(N)c1C#N)c1nc2ccc(F)cc2n1-c1cncc(F)c1` the metabolised at 0.5 h, 1 µM [1] was < 10%, the metabolised at 0.5 h, 1 µM [2] was < 10% and the solubility at 72 h [3] was 500 µM (≈ 196 µg/mL). For the same compound, the bioavailability [6] was 41%, the clearance [4] was 16.5 mL/min/kg and the CL free [5] was 3.1 L/h/kg.

Compound `C[C@H](Nc1ncnc(N)c1C#N)c1nc2ccc(F)cc2n1-c1cccc(F)c1` has a clearance [7] of 46 mL/min/kg, a metabolised at 0.5 h, 1 µM [1] of 15% and a metabolised at 0.5 h, 1 µM [2] of 28%. The solubility at 72 h [3] was 401 µM (≈ 157 µg/mL) and the CL free [5] was 27.6 L/h/kg.

For `C[C@H](Nc1ncnc(N)c1C#N)c1nc2ccc(F)cc2n1-c1cccnc1`, the clearance [8] was 15.5 mL/min/kg, the metabolised at 0.5 h, 1 µM [1] was < 10% and the metabolised at 0.5 h, 1 µM [2] was < 10%. It also gave a solubility at 72 h [3] of 474 µM (≈ 177 µg/mL), a bioavailability [6] of 45% and a CL free [5] of 2.6 L/h/kg.

With `C[C@H](Nc1ncnc(N)c1C#N)c1nc2ccc(F)cc2n1-c1ccc(F)cc1` the metabolised at 0.5 h, 1 µM [1] was < 10%, the metabolised at 0.5 h, 1 µM [2] was 22% and the solubility at 72 h [3] was 353 µM (≈ 138 µg/mL). The clearance [4] was 29.7 mL/min/kg and the CL free [5] was 18 L/h/kg.

For `C[C@H](Nc1ncnc(N)c1C#N)c1nc2ccc(F)cc2n1-c1ccccn1`, the metabolised at 0.5 h, 1 µM [1] was < 10%, the metabolised at 0.5 h, 1 µM [2] was < 10% and the solubility at 72 h [3] was 500 µM (≈ 187 µg/mL). The bioavailability [6] was 58%, the clearance [4] was 16.2 mL/min/kg and the CL free [5] was 4.4 L/h/kg.

In the case of `C[C@H](Nc1ncnc(N)c1C#N)c1nc2ccc(F)cc2n1-c1cccc(S(C)(=O)=O)c1`, the metabolised at 0.5 h, 1 µM [1] is reported as < 10%, the metabolised at 0.5 h, 1 µM [2] is reported as < 10% and the solubility at 72 h [3] is reported as 500 µM (≈ 226 µg/mL). The clearance [9] was 71.7 mL/min/kg and the CL free [5] was 12.3 L/h/kg.

For `C[C@H](Nc1ncnc(N)c1C#N)c1nc2ccc(F)cc2n1-c1cc(F)cc(F)c1`, the metabolised at 0.5 h, 1 µM [1] was 11%, the metabolised at 0.5 h, 1 µM [2] was 30% and the solubility at 72 h [3] was 305 µM (≈ 125 µg/mL). For the same compound, the clearance [4] was 44 mL/min/kg and the CL free [5] was 20.3 L/h/kg.
